Source: patent US9492508B2, “Parathyroid hormone analogs and uses thereof” (The General Hospital Corporation, priority 2010, dated 2016)
Square brackets hold non-standard residues; d marks the D form. Peptide text beside a SMILES is read from it. hArg = N=C(N)NCCCC[C@H](N)C(=O)O; Aib = CC(C)(N)C(=O)O

Legend:
[1] = Solubility, in vitro precipitation assay (PBS pH 7.4 vs 10 mM acetic acid); type: physicochemical; conditions: pH 7.4
Method: The relative solubilities of SP-PTH-AAK (SEQ ID NO:4) and SP-PTH (SEQ ID NO:11) in different buffers were assessed in an in vitro precipitation assay. For each polypeptide, two vials, each containing 50 μg of lyophilized polypeptide powder, were prepared; one vial was reconstituted in 50 μl of PBS at pH 7.4; the other vial was reconstituted in 50 μl of 10 mM acetic acid (pH 2.9) to give final concentrations of 1.0 mg/ml […]. After one hour at room temperature, the vials were centrifuged at 15,000×g for 2 minutes. The supernatant was removed and the protein content assayed using the Pierce BCA assay (Thermo Fischer Scientific, Rockford, Ill.). For each polypeptide, the content of the PBS sample was expressed as percent of the content of the corresponding acetic acid sample.

[2] = Blood Ca++ responses in mice; type: in vivo, mice (C57 BL/6); conditions: 5 nmol/kg s.c., 4, 6, 8 and 24 hours
Method: Blood Ca^++ responses in mice were also assayed. Mice (C57 BL/6) were injected subcutaneously with either vehicle or the indicated ligand to give a final dose of 5 nmol/kg body weight, and blood was withdrawn via the tail at times after injection and assessed for Ca^++ concentration using a Bayer Rapid Lab model 348 blood analyzer. […] A similar experiment using 10 nmol/kg by intravenous injection was also conducted with similar results (FIGS. 8C and 8D).

[3] = tested on: MC3T3-E1 cells; assay: cAMP response following ligand wash-out in MC3T3-E1 cells; type: cell-based, mouse; conditions: 100 nM ligand 5 min, then wash-out; FIGS. 7A, 7B
Method: Cells were treated at room temperature with vehicle or the indicated ligand (100 nM) for five minutes; for each ligand duplicate wells were used to obtain the initial (maximum cAMP values); in these wells, cells were co-incubated with ligand and IBMX. After five minutes of initial treatment, the buffer was removed, and, for the initial wells, the reactions were terminated by addition of 50 mM HCl. In the other wells, the cells were rinsed three times with buffer, and incubated in buffer for varying times, as indicated on the abscissa; after which the buffer was replaced by a buffer containing IBMX, and the cells were incubated for another five minutes. After that, the buffer was removed and the reactions were terminated by addition of 50 mM HCl. The cAMP contents of the HCl lysates were then determined by RIA.

[4] = target: T1, rat PTHR1 (RG) (Rattus norvegicus, UniProt P25961); assay: Competition binding, RG conformation of rat PTHR1; conditions: FIG. 1B
T1 construct: expressed in transfected cells
T1 sequence (P25961 27-591): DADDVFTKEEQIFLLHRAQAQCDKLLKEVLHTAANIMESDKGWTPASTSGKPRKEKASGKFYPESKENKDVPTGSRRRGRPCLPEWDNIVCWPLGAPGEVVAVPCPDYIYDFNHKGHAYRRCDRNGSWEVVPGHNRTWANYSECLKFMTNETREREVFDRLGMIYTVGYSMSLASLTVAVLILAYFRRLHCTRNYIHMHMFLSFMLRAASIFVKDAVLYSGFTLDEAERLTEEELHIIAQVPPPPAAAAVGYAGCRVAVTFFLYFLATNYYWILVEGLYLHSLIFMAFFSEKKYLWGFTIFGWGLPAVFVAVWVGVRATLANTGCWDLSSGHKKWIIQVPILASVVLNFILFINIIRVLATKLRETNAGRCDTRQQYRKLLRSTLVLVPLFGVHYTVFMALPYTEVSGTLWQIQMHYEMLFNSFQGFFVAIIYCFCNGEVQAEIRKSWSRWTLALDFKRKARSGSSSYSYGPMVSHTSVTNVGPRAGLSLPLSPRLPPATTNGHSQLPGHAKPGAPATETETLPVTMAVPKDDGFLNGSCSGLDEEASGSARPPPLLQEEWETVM
Excerpt: (§1) Briefly, the R^0 form of the receptor can be favored by addition of the non-hydrolyzable nucleotide analog GTPγS. The RG form can be favored, for example, by co-transfection of cells with a negative dominant Gαs subunit. […] Data are means of four experiments, each performed in duplicate. Curves were fit to the data using Graph-Pad Prism 4.0.

[5] = target: T2, rat PTHR1 (R0) (Rattus norvegicus, UniProt P25961); assay: Competition binding, R0 conformation of rat PTHR1; conditions: R0 conformation; read-out: Binding rat PTHR1 IC50 nM R0
T2 sequence (P25961 27-591): T1 sequence (P25961 27-591)
Excerpt: as §1

[6] = target: T3, human PTHR1 (R0) (Homo sapiens, UniProt Q03431); assay: Competition binding, R0 conformation of human PTHR1 (COS-7 membranes, 125I-PTH(1-34) tracer, GTPγS); conditions: FIG. 5A
T3 construct: expressed in transfected cells; host or cells: COS-7 cells (membranes)
T3 sequence (Q03431 27-593): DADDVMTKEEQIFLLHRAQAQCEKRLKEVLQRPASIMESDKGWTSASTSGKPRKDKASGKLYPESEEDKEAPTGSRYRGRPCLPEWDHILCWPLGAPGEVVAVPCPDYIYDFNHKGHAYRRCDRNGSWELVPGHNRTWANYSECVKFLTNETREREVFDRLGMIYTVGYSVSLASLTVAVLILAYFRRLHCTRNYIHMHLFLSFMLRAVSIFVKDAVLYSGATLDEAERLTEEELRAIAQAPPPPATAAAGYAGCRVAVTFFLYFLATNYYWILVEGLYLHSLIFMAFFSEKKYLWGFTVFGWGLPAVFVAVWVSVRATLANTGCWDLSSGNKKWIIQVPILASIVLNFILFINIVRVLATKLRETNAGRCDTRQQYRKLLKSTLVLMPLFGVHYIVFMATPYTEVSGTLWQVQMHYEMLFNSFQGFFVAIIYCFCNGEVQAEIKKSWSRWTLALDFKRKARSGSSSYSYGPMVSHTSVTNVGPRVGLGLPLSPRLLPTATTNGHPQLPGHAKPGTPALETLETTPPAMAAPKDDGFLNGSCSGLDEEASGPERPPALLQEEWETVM
Method: as §1
(§2) Here, competition binding assays for the R^0 and RG PTHR1 conformation were performed in membranes prepared from transfected COS-7 cells, as described by Dean et al., Mol Endocrinol 22:156-66, 2008. Data are means of three experiments, each performed in duplicate. Curves were fit to the data using Graph-Pad Prism 4.0.

[7] = target: T4, human PTHR1 (RG) (Homo sapiens, UniProt Q03431); assay: Competition binding, RG conformation of human PTHR1 (COS-7 membranes); conditions: mean of 3 experiments, read-out: Binding human PTHR1 IC50 (Log M) RG (converted)
T4 construct: expressed in transfected cells; host or cells: COS-7 cells (membranes)
T4 sequence (Q03431 27-593): T3 sequence (Q03431 27-593)
Method: as §1, §2

[8] = tested on: MC3T3-E1 cells; assay: cAMP RIA in intact MC3T3-E1 cells; type: cell-based, mouse; conditions: 30 min, room temperature, IBMX
Method: cAMP stimulating activity of these polypeptides was also assessed, using two different methods: a radioimmunoassay (RIA; FIG. 2) and a cAMP responsive element fused to a luciferase gene (FIG. 3). Briefly, the RIA cAMP assays were performed in intact MC3T3-E1 cells, a mouse pre-osteoblastic cell line, in 96-well plates, as described by Okazaki et al. (Proc Natl Acad Sci USA 105:16525-30, 2008). […] The cAMP contents of the HCl lysates were then determined by RIA. Data are means of six experiments, each performed in duplicate. Curves were fit to the data using Graph-Pad Prism 4.0.

[9] = rat, in vivo, iv, 24.3 nmol/kg
[10] = in vivo; conditions: Crl:CD(SD), rat, iv, 24.3 nmol/kg
[11] = target: T5, PD PTH receptor (Mus musculus, UniProt P41593, S489A/S491A/S492A/S493A/S495A/S501A/S504A); assay: Blood calcium and cAMP in knock-in mice with phosphorylation-deficient (PD) PTH receptor vs wild-type; type: in vivo
T5 construct: endogenous in cells; host or cells: knock-in mice (in vivo)
T5 sequence (P41593 27-591 S489A/S491A/S492A/S493A/S495A/S501A/S504A): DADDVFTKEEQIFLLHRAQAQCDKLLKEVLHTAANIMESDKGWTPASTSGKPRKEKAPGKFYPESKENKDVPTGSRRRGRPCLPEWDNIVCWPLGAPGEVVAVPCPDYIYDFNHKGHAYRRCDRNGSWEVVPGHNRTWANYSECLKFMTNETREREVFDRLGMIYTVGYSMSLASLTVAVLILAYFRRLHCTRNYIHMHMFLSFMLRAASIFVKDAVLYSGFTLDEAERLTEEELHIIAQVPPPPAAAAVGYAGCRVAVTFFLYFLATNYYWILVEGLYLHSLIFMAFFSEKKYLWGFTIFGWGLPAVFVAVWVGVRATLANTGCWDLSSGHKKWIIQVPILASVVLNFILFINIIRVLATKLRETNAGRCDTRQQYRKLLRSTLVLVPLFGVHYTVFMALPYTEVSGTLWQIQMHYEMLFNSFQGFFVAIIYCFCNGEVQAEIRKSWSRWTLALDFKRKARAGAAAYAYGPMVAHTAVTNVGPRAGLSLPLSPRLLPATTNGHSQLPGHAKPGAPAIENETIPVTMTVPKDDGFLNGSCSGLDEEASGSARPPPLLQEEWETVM
Method: The activity of SP-PTH-AAK (SEQ ID NO:4) was tested in “knock-in” mice that express a PD PTH receptor in place of the wild-type PTH receptor (Bounoutas et al., Endocrinology 147: 4674, 2006).
Blood cAMP levels were also compared between the two types of mice.

Molecule: CC[C@H](C)[C@H](NC(=O)[C@H](CCC(=O)O)NC(=O)[C@H](C)NC(=O)[C@@H](NC(=O)[C@H](Cc1c[nH]cn1)NC(=O)[C@@H](NC(=O)[C@H](CCC(=O)O)NC(=O)[C@H](C)NC(=O)[C@@H](NC(=O)[C@H](CC(C)C)NC(=O)[C@H](CCCCN)NC(=O)[C@H](Cc1c[nH]cn1)NC(=O)[C@H](CC(C)C)NC(=O)[C@H](Cc1ccccc1)NC(=O)[C@H](C)NC(=O)[C@H](CCCNC(=N)N)NC(=O)[C@H](CCCNC(=N)N)NC(=O)[C@H](CCCNC(=N)N)NC(=O)[C@H](C)NC(=O)[C@H](CC(=O)O)NC(=O)[C@H](CCC(N)=O)NC(=O)[C@@H](NC(=O)[C@H](Cc1c[nH]c2ccccc12)NC(=O)[C@H](CCCCN)NC(=O)[C@H](C)NC(=O)[C@H](CCCCNC(=N)N)NC(=O)[C@H](CCC(N)=O)NC(=O)[C@H](Cc1c[nH]cn1)NC(=O)[C@H](CCSC)NC(=O)[C@H](CC(C)C)NC(=O)[C@H](CCC(N)=O)NC(=O)[C@@H](NC(=O)[C@H](CCC(=O)O)NC(=O)C(C)(C)NC(=O)[C@@H](NC(=O)[C@H](C)N)C(C)C)[C@@H](C)CC)[C@@H](C)CC)[C@@H](C)CC)[C@@H](C)CC)[C@@H](C)O)C(N)=O [AIB-SP-PTH-AAK, [Ala^1,12,18,22,Aib^3,Gln^10,Har^11,Trp^14,Lys^26]PTH(1-14)/PTHrP(15-36)] (H-AV[Aib]EIQLMHQ[hArg]AKWIQDARRRAFLHKLIAEIHTAEI-NH2; N-terminus assumed)
- solubility in PBS pH 7.4 (percent of acetic acid sample), in words [1]: solubility similar to hPTH(1-34)NH2
- blood calcium levels at later time points vs PTH(1-34) or vehicle [2]: increased
- cAMP-stimulating activity after ligand wash-out [3]: maintained cAMP-stimulating activity for longer periods of time than PTH(1-34)
- binding to RG form of rat PTHR1, comparison in words [4]: increased
- IC50 [5]: 0.7 nM
- R0 binding at human PTH receptor as compared to PTH(1-34) [6]: enhanced R^0 binding
- IC50 [7]: 372 pM
- EC50 [8]: 18 pM
- cAMP MC3T3-E1 cells Emax (pmole/well) [8]: 57.9 ± 13.9 pmole/well
- cAMP MC3T3-E1 cells EC50 (Log M) ([8]; 6 experiments): −10.7 ± 0.1 Log M

Molecule: CC[C@H](C)[C@H](NC(=O)[C@H](CCC(=O)O)NC(=O)[C@H](CO)NC(=O)[C@@H](NC(=O)[C@@H](N)CO)C(C)C)C(=O)N[C@@H](CCC(N)=O)C(=O)N[C@@H](CC(C)C)C(=O)N[C@@H](CCSC)C(=O)N[C@@H](Cc1cnc[nH]1)C(=O)N[C@@H](CC(N)=O)C(=O)N[C@@H](CC(C)C)C(=O)NCC(=O)N[C@@H](CCCCN)C(=O)N[C@@H](Cc1cnc[nH]1)C(=O)N[C@@H](CC(C)C)C(=O)N[C@@H](CC(N)=O)C(=O)N[C@@H](CO)C(=O)N[C@@H](CCSC)C(=O)N[C@@H](CCC(=O)O)C(=O)N[C@@H](CCCN=C(N)N)C(=O)N[C@H](C(=O)N[C@@H](CCC(=O)O)C(=O)N[C@@H](Cc1c[nH]c2ccccc12)C(=O)N[C@@H](CC(C)C)C(=O)N[C@@H](CCCN=C(N)N)C(=O)N[C@@H](CCCCN)C(=O)N[C@@H](CCCCN)C(=O)N[C@@H](CC(C)C)C(=O)N[C@@H](CCC(N)=O)C(=O)N[C@@H](CC(=O)O)C(=O)N[C@H](C(=O)N[C@@H](Cc1cnc[nH]1)C(=O)N[C@@H](CC(N)=O)C(=O)N[C@@H](Cc1ccccc1)C(=O)O)C(C)C)C(C)C [PTH(1-34), hPTH(1-34)OH, reference compound]
- AUCinf [9]: 1315 pmol·min/mL
- AUClast [9]: 1308 pmol·min/mL
- MRT [10]: 11.4 min
- Vd [10]: 0.211 L/kg
- clearance [10]: 18.5 mL/min/kg
- half-life [10]: 7.78 min

Molecule: M-PTH(1-28)
- increases in blood calcium levels in PD mice as compared to wild-type mice ([11]; FIGS. 17A, 17B): either reduced or eliminated
- blood cAMP levels in PD mice as compared to wild-type mice ([11]; FIGS. 18A, 18B): increased in magnitude and prolonged in duration
